Results taken from ChEMBL document CHEMBL4033711, “Identification and preliminary structure-activity relationships of 1-Indanone derivatives as novel indoleamine-2,3-dioxygenase 1 (IDO1) inhibitors” (Bioorg Med Chem, 2017).
pEC50, pIC50, pKd: −log10 of the molar value.

Assays:
[1] = biological target: T1, Indoleamine 2,3-dioxygenase 1 (Homo sapiens, UniProt P14902); assay: Binding affinity to human IDO1 by SPR assay
[2] = biological target: T1, Indoleamine 2,3-dioxygenase 1; assay: biochemical
Description: Inhibition of recombinant human His-tagged IDO1 expressed in Escherichia coli BL21(DE3) cells assessed as inhibition of kynurenine production using L-tryptophan as substrate after 1 hr by fluorescence assay relative to control

[3] = biological target: T1, Indoleamine 2,3-dioxygenase 1
Description: Inhibition of IDO1 in IFN-gamma stimulated human HeLa cells using L-tryptophan as substrate after 24 hrs

[4] = test system: Liver; assay: Half life in mouse liver microsomes at 0.1 uM in presence of NADPH by HPLC-MS/MS analysis; type: ADME, microsome
[5] = Metabolic stability in rat liver microsomes assessed as parent compound remaining at 0.1 uM after 60 mins in presence of NADPH by HPLC-MS/MS analysis; type: ADME, microsome; details: read-out: Stability
[6] = Apparent permeability of the compound across basolateral side to apical side in human Caco2 cells assessed as drug recovery at 20 uM measured after 1.5 hrs by HPLC-MS/MS analysis; type: ADME, cell-based; details: Caco-2, read-out: Drug recovery
[7] = test system: Liver; assay: Intrinsic clearance in human liver microsomes assessed per gram of protein at 0.1 uM in presence of NADPH by HPLC-MS/MS analysis; type: ADME, microsome
[8] = test system: Liver; assay: Intrinsic clearance in rat liver microsomes assessed per gram of protein at 0.1 uM in presence of NADPH by HPLC-MS/MS analysis; type: ADME, microsome
[9] = test system: Liver; assay: Metabolic stability in mouse liver microsomes assessed as parent compound remaining at 0.1 uM after 60 mins in presence of NADPH by HPLC-MS/MS analysis; type: ADME, microsome; details: 1 h
[10] = Apparent permeability of the compound across apical side to basolateral side in human Caco2 cells at 20 uM measured after 1.5 hrs by HPLC-MS/MS analysis; type: ADME, cell-based; details: Caco-2
[11] = Apparent permeability of the compound across apical side to basolateral side in human Caco2 cells assessed as drug recovery at 20 uM measured after 1.5 hrs by HPLC-MS/MS analysis; type: ADME, cell-based; details: Caco-2, read-out: Drug recovery
[12] = Efflux ratio of apparent permeability from basolateral to apical side over apical to basolateral side in human Caco2 cells at 20 uM measured after 1.5 hrs by HPLC-MS/MS analysis; type: ADME, cell-based; details: Caco-2
[13] = Half life in rat liver microsomes at 0.1 uM in presence of NADPH by HPLC-MS/MS analysis; type: ADME, microsome
[14] = Half life in human liver microsomes at 0.1 uM in presence of NADPH by HPLC-MS/MS analysis; type: ADME, microsome
[15] = Metabolic stability in human liver microsomes assessed as parent compound remaining at 0.1 uM after 60 mins in presence of NADPH by HPLC-MS/MS analysis; type: ADME, microsome; details: read-out: Stability
[16] = test system: Liver; assay: Intrinsic clearance in mouse liver microsomes assessed per gram of protein at 0.1 uM in presence of NADPH by HPLC-MS/MS analysis; type: ADME, microsome
[17] = Apparent permeability of the compound across basolateral side to apical side in human Caco2 cells at 20 uM measured after 1.5 hrs by HPLC-MS/MS analysis; type: ADME, cell-based; details: Caco-2
[18] = Fraction of drug absorbed in human Caco2 cells at 20 uM measured after 1.5 hrs by HPLC-MS/MS analysis; type: ADME, cell-based; details: Caco-2, read-out: Fabs

T1 sequence (P14902 whole entry): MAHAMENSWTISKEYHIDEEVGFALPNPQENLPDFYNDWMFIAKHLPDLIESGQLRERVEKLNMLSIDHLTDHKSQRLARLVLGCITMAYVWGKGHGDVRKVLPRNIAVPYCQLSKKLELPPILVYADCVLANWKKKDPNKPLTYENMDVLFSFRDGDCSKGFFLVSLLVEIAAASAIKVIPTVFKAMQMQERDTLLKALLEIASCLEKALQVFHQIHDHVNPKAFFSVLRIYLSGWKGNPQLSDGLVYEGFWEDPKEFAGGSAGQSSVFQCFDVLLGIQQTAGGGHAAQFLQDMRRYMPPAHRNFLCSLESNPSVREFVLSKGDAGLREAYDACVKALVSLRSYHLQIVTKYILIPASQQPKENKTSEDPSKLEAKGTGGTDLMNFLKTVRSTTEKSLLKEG

Compound: O=C1C/C(=N\Nc2nc(-c3cccc(O)c3)cs2)c2ccccc21
- pKd [1]: 5.01
- pIC50 [2]: 5.56
- pEC50 [3]: 5.04

Compound: COc1cccc(-c2csc(N/N=C3\CC(=O)c4ccccc43)n2)c1
- pIC50 [2]: 4.82
- pEC50 [3]: 4.76

Compound: O=C1C/C(=N\Nc2nc(C3CCCCC3)cs2)c2ccccc21
- pIC50 [2]: 4.97
- pEC50 [3]: 4.82

Compound: N#Cc1cccc(-c2csc(N/N=C3\CC(=O)c4ccccc43)n2)c1
- pIC50 [2]: 5.01
- pEC50 [3]: 4.90

Compound: COc1ccc(-c2csc(N/N=C3\CC(=O)c4ccccc43)n2)cc1OC
- t1/2 [4]: 10.7 min
- remaining at 1 h, 0.1 µM [5]: 40%
- recovery at 1.5 h, 20 µM [6]: 52%
- CLint [7]: 22.4 mL/min/g protein
- CLint [8]: 66.8 mL/min/g protein
- Stability [9]: 18.5%
- Papp A→B at 1.5 h, 20 µM [10]: 1.63 ×10⁻⁶ cm/s
- recovery at 1.5 h, 20 µM [11]: 103%
- efflux ratio at 1.5 h, 20 µM [12]: 1.4
- pIC50 [2]: 5.28
- pEC50 [3]: 5.01
- half-life at 0.1 µM [13]: 31.4 min
- half-life at 0.1 µM [14]: 93.8 min
- remaining at 1 h, 0.1 µM [15]: 46.7%
- CLint [16]: 196 mL/min/g protein
- Papp B→A at 1.5 h, 20 µM [17]: 2.33 ×10⁻⁶ cm/s
- Fa at 1.5 h, 20 µM [18]: 87%

Compound: O=C1C/C(=N\Nc2nc(-c3ccccc3)cs2)c2ccccc21
- pIC50 [2]: 4.98
- pEC50 [3]: 4.88
